# Assay results published in ChEMBL document CHEMBL4725291, “Design, synthesis and biological evaluation of novel glyoxalase I inhibitors possessing diazenylbenzenesulfonamide moiety as potential anticancer agents” (Bioorg Med Chem, 2020).
# Target: T1, Lactoylglutathione lyase (Homo sapiens, UniProt Q04760)
# Assay: Inhibition of recombinant human N-terminal Met and 6-His-tagged Glyoxalase-1 (Ala2 to Met184 residues) at 25 uM using glutathione and methylglyoxal as substrates preincubated for 15 mins followed by enzyme addition by double beam UV-vis spectrophotometric method relative to control
# Target sequence in this assay (Q04760 2-184 limits assumed): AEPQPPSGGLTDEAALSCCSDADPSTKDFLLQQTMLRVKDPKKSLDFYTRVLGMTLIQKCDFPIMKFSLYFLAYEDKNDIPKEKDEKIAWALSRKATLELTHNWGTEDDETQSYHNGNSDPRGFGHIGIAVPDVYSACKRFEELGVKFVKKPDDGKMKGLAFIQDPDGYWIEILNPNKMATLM
row,inhibition [%],SMILES
1,76.4,Cc1ccc(/N=N/c2ccc(N)c3ccc(O)cc23)cc1S(N)(=O)=O
2,75,O=S(=O)(O)c1ccc(/N=N/c2ccc(O)c3ncccc23)cc1
3,96.5,NS(=O)(=O)c1cccc(/N=N/c2cc(C(=O)O)c(O)c3ccccc23)c1
4,92.1,Cc1ccc(/N=N/c2ccc(O)c3ncccc23)cc1S(N)(=O)=O
5,79.9,O=C(O)c1ccc(/N=N/c2ccc(O)c3ncccc23)cc1
6,98.3,NS(=O)(=O)c1cccc(/N=N/c2ccc(O)c3ncccc23)c1
7,57.4,Cc1ccc(/N=N/c2cc3ccccc3c(C=O)c2O)cc1S(N)(=O)=O
8,67.7,Cc1ccc(/N=N/c2ccc(O)c(C(=O)O)c2)cc1S(N)(=O)=O
9,100,Cc1ccc(/N=N/c2cc(C(=O)O)c(O)c3ccccc23)cc1S(N)(=O)=O
10,28.1,Nc1ccc(/N=N/c2cccc(S(N)(=O)=O)c2)c2ccccc12
11,24.7,Cc1ccc(/N=N/c2ccc(N)c3ccccc23)cc1S(N)(=O)=O
12,57.2,Cc1ccc(/N=N/c2ccc(N)c3cc(O)ccc23)cc1S(N)(=O)=O
13,66,Nc1ccc(/N=N/c2cccc(S(N)(=O)=O)c2)c2ccc(O)cc12

# The remaining lines, values behind:
row,SMILES,inhibition [%]
1,NS(=O)(=O)c1cccc(/N=N/c2ccc(O)c(C(=O)O)c2)c1,76.5
2,NS(=O)(=O)c1cccc(/N=N/c2ccc(O)cc2)c1,59.9
3,Cc1ccc(/N=N/c2c(O)ccc3ccccc23)cc1S(N)(=O)=O,34.5
4,Cc1ccc(/N=N/c2c(O)ccc3cccc(N)c23)cc1S(N)(=O)=O,54
5,NS(=O)(=O)c1cccc(/N=N/c2c(O)ccc3ccccc23)c1,39
6,Cc1ccc(/N=N/c2cc3ccc(=O)oc3cc2O)cc1S(N)(=O)=O,59
7,Oc1ccc(/N=N/c2ccccc2)c2cccnc12,82.8
8,O=C(O)c1cccc(/N=N/c2ccc(O)c3ncccc23)c1,90.7
9,NS(=O)(=O)c1cccc(/N=N/c2cc3ccc(=O)oc3cc2O)c1,64.4
10,NS(=O)(=O)c1cccc(/N=N/c2ccc(O)c3ccccc23)c1,38.3

# Target: T1, Lactoylglutathione lyase
# Assay: Inhibition of recombinant human N-terminal Met and 6-His-tagged Glyoxalase-1 (Ala2 to Met184 residues) using glutathione and methylglyoxal as substrates preincubated for 15 mins followed by enzyme addition by double beam UV-vis spectrophotometric method
# Target sequence in this assay (Q04760 whole entry): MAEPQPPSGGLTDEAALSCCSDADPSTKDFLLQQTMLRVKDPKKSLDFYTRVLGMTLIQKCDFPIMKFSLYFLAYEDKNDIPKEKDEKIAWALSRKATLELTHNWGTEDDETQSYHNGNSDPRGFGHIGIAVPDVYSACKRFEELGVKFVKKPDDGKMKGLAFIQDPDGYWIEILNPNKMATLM
row,IC50 [µM],SMILES
1,9.7,O=S(=O)(O)c1ccc(/N=N/c2ccc(O)c3ncccc23)cc1
2,1.22,NS(=O)(=O)c1cccc(/N=N/c2cc(C(=O)O)c(O)c3ccccc23)c1
3,1.28,Cc1ccc(/N=N/c2ccc(O)c3ncccc23)cc1S(N)(=O)=O
4,4.45,O=C(O)c1ccc(/N=N/c2ccc(O)c3ncccc23)cc1
5,1.36,NS(=O)(=O)c1cccc(/N=N/c2ccc(O)c3ncccc23)c1
6,18.6,Cc1ccc(/N=N/c2cc3ccccc3c(C=O)c2O)cc1S(N)(=O)=O
7,> 100,Cc1ccc(/N=N/c2ccc(N)c3cccc(O)c23)cc1S(N)(=O)=O
8,11.5,Cc1ccc(/N=N/c2ccc(O)c(C(=O)O)c2)cc1S(N)(=O)=O
9,1.13,Cc1ccc(/N=N/c2cc(C(=O)O)c(O)c3ccccc23)cc1S(N)(=O)=O
10,85.8,Nc1ccc(/N=N/c2cccc(S(N)(=O)=O)c2)c2ccccc12
11,95.7,Cc1ccc(/N=N/c2ccc(N)c3ccccc23)cc1S(N)(=O)=O
12,18.9,Cc1ccc(/N=N/c2ccc(N)c3cc(O)ccc23)cc1S(N)(=O)=O
13,21.8,Nc1ccc(/N=N/c2cccc(S(N)(=O)=O)c2)c2ccc(O)cc12

# More lines, now with the values behind:
row,SMILES,IC50 [µM]
1,NS(=O)(=O)c1cccc(/N=N/c2ccc(O)c(C(=O)O)c2)c1,8.66
2,NS(=O)(=O)c1cccc(/N=N/c2ccc(O)cc2)c1,13.4
3,Cc1ccc(/N=N/c2c(O)ccc3ccccc23)cc1S(N)(=O)=O,45
4,Cc1ccc(/N=N/c2c(O)ccc3cccc(N)c23)cc1S(N)(=O)=O,24
5,NS(=O)(=O)c1cccc(/N=N/c2c(O)ccc3ccccc23)c1,37.5
6,Cc1ccc(/N=N/c2cc3ccc(=O)oc3cc2O)cc1S(N)(=O)=O,17.8
7,Cc1ccc(/N=N/c2cc3ccccc3c(C(=O)O)c2O)cc1S(N)(=O)=O,> 100
8,Oc1ccc(/N=N/c2ccccc2)c2cccnc12,9.13
9,O=C(O)c1cccc(/N=N/c2ccc(O)c3ncccc23)c1,4.37
10,NS(=O)(=O)c1cccc(/N=N/c2cc3ccc(=O)oc3cc2O)c1,18.9
11,NS(=O)(=O)c1cccc(/N=N/c2ccc(O)c3ccccc23)c1,52.2
